# Measured values published in patent US20100331409A1, “Use of Methyl Cinnamate in the Inhibition of Candida Albicans Biofilms” (Barak Biotechnology Co., Ltd., priority 2009, published 2010).
# Experiments:
# Assay type in all cases: cell-based
# Candida albicans [1] = experiment: MIC assay against Candida albicans; conditions: 1×10^5 CFU/ml, 96-well plates, 37° C. for 16 hours
# Procedure: (§1) A single colony of Candida albicans was selected from YPD plate, seeded in YPD liquid medium and then cultured at 30° C. and 100 rpm for 16 hours. The medium was diluted to 1×10^5 CFU/ml. The diluted medium was added to 96-well plates containing different concentrations of methyl cinnamate and essential oil of Zanthoxylum armatum (0.00625% to 1% for methyl cinnamate and 0.025% to 0.5% for essential oil) and cultured at 37° C. for 16 hours.
# Candida albicans [2] = experiment: MFC assay against Candida albicans; conditions: 1×10^5 CFU/ml, 96-well plates, 37° C. for 16 hours
# Procedure: as §1
# [3] = tested on: biofilm of Candida albicans; experiment: Inhibition of biofilm of Candida albicans on polystyrene (XTT and crystal violet); conditions: concentration ranging from 0.015% to 0.125%; added 4 hours after adhesion, cultured at 37° C. to 48 hours; XTT and CV
# Procedure: A single colony of Candida albicans was selected from YPD plate (1% (w/v) yeast extract, 2% (w/v) peptone, 2% (w/v) dextrose and 1.5% (w/v) agar), seeded in YPD liquid medium (1% (w/v) yeast extract, 2% (w/v) peptone and 2% (w/v) dextrose) and then cultured at 30° C. and 100 rpm for 16 hours. The YPD medium was washed out and the amounts of the Candida albicans cells were counted using Hematocyte Counter. The cells were diluted with RPMI 1640 medium (Gibco, Invitroge, Calif., U.S.A.) to 5×10^5 cells/ml. 200 μL of 5×10^5 cells/ml medium were added to 96-well plate and placed at 37° C. for 1 hour so that the cells could adhere to the bottom of the plate. The non-adhered cells were washed out with phosphate buffer. The material of the 96-well plate was polystyrene, which is a common material for medical device such as syringe. Subsequently, RPMI 1640 medium was added to the plate and cultured at 37° C. […] The numbers of cells in the biofilm were determined by a colorimetric assay using XTT [2,3-Bis(2-methoxy-4-nitro-5-sulfo-phenyl)-2H-tetrazolium-5-carboxanilide] (Sigma, Mo., U.S.A.) and their biomass was determined by crystal violet to find out the mature development of biofilm (Ramage G et al., Inhibition of Candida albicans Biofilm Formation by Farnesol, A Quorum-Sensing Molecule. Appl Environ Microbiol 2002, 68: 5459-5463). […]
structure (smiles),measurement,setting,value
COC(=O)/C=C/c1ccccc1 [methyl cinnamate],MIC,Candida albicans [1],0.1%
same,MFC,Candida albicans [2],0.8%
same,biofilm inhibited,[3],10 to 60%
